Measured values as given in patent publication US12616649B2, “Composition containing plant extracts” (LG HOUSEHOLD & HEALTH CARE LTD., priority 2020, dated 2026).

Assays:
[1] = test system: B-16 mouse melanoma cells; assay: Effect of reducing total amount of melanin (whitening); assay type: cell-based; conditions: control group
Method: After a sample was added to the culture medium of B-16 mouse melanoma cells, a whitening effect was confirmed by measuring the total amount of melanin at the cellular level (Lotan R., Lotan D. Cancer Res. 40:3345-3350, 1980). Before the experiment, toxicity evaluation was performed on mouse melanoma cells to select a concentration without toxicity, and then whitening evaluation was performed at the concentration.
As a control, arbutin was added to the culture medium at a concentration of 200 ppm. B-16 melanoma cells treated with the sample or arbutin were cultured for 3 days.
Thereafter, the cells were removed from a culture vessel and centrifuged, 1 ml of sodium hydroxide solution (1N concentration) was added to the centrifuged cell pellet, heating was performed at 80° C. for 10 minutes to dissolve melanin, and using a spectrophotometer, absorbance at 400 nm was measured to measure the amount of melanin produced.
The amount of melanin was determined according to absorbance per unit cell number (1×10^6 cells). In addition, based on a non-addition control group, the relative total amount of melanin in the experimental group treated with each sample was calculated as inhibition rate (%), and the results are summarized in the table below.

RAW264.7 cells = assay: NO generation inhibitory effect (GRIESS method, LPS stimulus); assay type: cell-based, mouse
Method: To check the anti-inflammatory effect and skin trouble alleviation effect of each sample, an experiment was conducted to evaluate inhibition of nitric oxide (NO) formation by the GRIESS method using the RAW264.7 cell line (ATCC number: CRL-2278).
Specifically, RAW264.7 cells, which are macrophages of mice, were subcultured several times, and the cells were seeded at a cell density of 3×10^5 cells per well in a 24-well plate, followed by cell culture for 24 hours. At this time, as a positive control, the cells were treated with L-NG-monomethylarginine (L-NMMA), a NO-production inhibitor, to a final concentration of 5 ppm and cultured for 30 minutes. Then, the cells were treated with lipopolysaccharide (LPS) as a stimulus at a concentration of 1 μg/ml and cultured for 24 hours. 100 μl of the supernatant was transferred to a 96-well plate, 100 μl of a GRIESS solution was added thereto, and then reaction was performed at room temperature for 10 minutes. Then, absorbance at 540 nm was measured, and the NO inhibitory effect of each sample was determined based on the absorbance, and the results are shown in the table below.

[2] = Antioxidant effect, free radical scavenging (DPPH); assay type: physicochemical; conditions: control group
Method: To confirm antioxidant activity, free radical scavenging activity was measured using DPPH. DPPH was purchased from Sigma Co., Ltd. (USA). First, a standard DPPH ethanol solution with a concentration of […] (0.06 mg/ml) was prepared. Then, ethanol was added to each extract and ascorbic acid as a reference material, which is known as an antioxidant, to prepare samples at a concentration of 0.1%, and serial dilution was performed. Then, the sample and the standard DPPH solution were added in the same ratio and stirred, followed by reaction at 37° C. for 30 minutes. Then, absorbance was measured at 517 nm. At this time, addition of ethanol instead of the sample was used as a control. Free radical scavenging ability was measured by calculating IC50, which is half maximal inhibitory concentration, and the results are shown in the following table. IC50 is a general method of expressing free radical scavenging ability as the concentration of ascorbic acid and extract required to remove 50% of free radicals of a non-addition control group.

human dermal fibroblasts = assay: Hyaluronic acid synthesis enhancement (Hyaluronan ELISA); assay type: cell-based; conditions: 10 ppb
Method: Human-derived fibroblasts (human dermal fibroblasts) cultured in a DMEM culture medium containing 10% fetal bovine serum at a cell density of 1×10^5 cells/mL, and 500 μl of the cell culture medium was added to each well of a 24-well plate. After incubation for 18 hours, the samples were diluted with a DMEM culture medium without fetal bovine serum, and each sample was added at the following concentrations. […] After incubation for 24 hours, the cell culture medium was recovered, and the concentration of hyaluronic acid was measured using a Hyaluronan ELISA kit (R&D Systems).

Aspergillus niger = assay: Antibacterial effect, MIC, fungi (serial dilution); assay type: cell-based
Method: MICs were measured for fermented cultures of Staphylococcus aureus and Aspergillus niger.
The serial dilution method was used for both bacteria, and the MIC of fermentation culture was confirmed by visually comparing the turbidity between wells after the incubation was completed.
The minimum inhibitory concentration of each extract was expressed as % (w/v), and MIC (%) in each table means % (w/v) unless otherwise stated.

P. aeruginosa = assay: MIC of the hexanediol control, bacteria as named in the tables; assay type: cell-based; conditions: control group
[3] = test system: human-derived fibroblasts; assay: Promotion of type I collagen synthesis (PICP EIA kit); assay type: cell-based; conditions: 10 ppb
Method: Each sample was added to the culture medium of human-derived fibroblasts to confirm the effect of promoting synthesis of type I collagen at the cellular level. Measurement of synthesized collagen was quantified using a Procollagen Type I C-Peptide Enzyme Immuno Assay KIT (PICP ETA kit). To measure the amount of synthesized collagen, each sample was added to a fibroblast culture medium (DMEM culture medium). After cell culture for 48 hours, the culture medium was taken, and the degree of synthesis of type I collagen at each concentration was measured at 450 nm using a spectrophotometer using the PICP ETA kit.
For comparison of the effects, a collagen synthesis level was measured in the same manner for the culture medium of untreated fibroblasts (negative control) and a sample (positive control) to which TGFb was added to a final concentration of 10 ppb. A collagen production increase rate was calculated as the ratio of relative collagen production to the negative control group, and the results are shown in the table below.

With `OC[C@H]1O[C@@H](Oc2ccc(O)cc2)[C@H](O)[C@@H](O)[C@@H]1O` [Aibutin] the “Whitening Melanin content (%)” value ([1]; Arbutin 200 ppm) was 35%.

In the case of `OC[C@H]1O[C@@H](Oc2ccc(O)cc2)[C@H](O)[C@@H](O)[C@@H]1O` [Arbutin, arbutin], the “Whitening Melanin content (%)” value ([1]; 200 ppm) was 35%.

With `CNC(=N)NCCC[C@H](N)C(=O)O` [L-NMMA, L-NG-monomethylarginine] the “Anti-inflammation Inhibition of NO production (%)” value (RAW264.7 cells; control group, 5 ppm) was 28%, the “Anti-inflammation Inhibition of NO production (%)” value (RAW264.7 cells; control group, L-NMMA 5 ppm) was “L-NMMA (5 ppm) 28%” and the “Anti-inflammation Inhibition of NO production (%)” value (RAW264.7 cells; positive control, 5 ppm) was 28%.

In the case of `O=C1O[C@H]([C@@H](O)CO)C(O)=C1O` [Vitamin C, ascorbic acid], the “Anti-oxidation IC50” value [2] was 7.5 ppm and the “Anti-oxidation IC50” value ([2]; DPPH) was 7.5 ppm.

In the case of “EGF: epidermal growth factor, known to promote hyaluronic acid production”, the “Moisturizing HA synthesis (%)” value (human dermal fibroblasts; control group) was 320% and the “Moisturizing HA synthesis (%)” value (human dermal fibroblasts; positive control) was 320%.

With Hexanediol the “Anti-bacteria MIC (%) Fungi” value (Aspergillus niger; % (w/v), A. niger, 30° C., 48 hours) was “Fungi: A. niger 1%”, the “Anti-bacteria MIC (%) Fungi” value (Aspergillus niger; Fungi) was “Fungi: A. niger 1%” and the “Anti-bacteria MIC (%) Fungi” value (Aspergillus niger; Fungi (A. niger)) was “Fungi: A. niger 1%”. The “Anti-bacteria MIC (%) Fungi” value (Aspergillus niger; Fungi (A.niger)) was “Fungi: A.niger 1%”, the “Anti-bacteria MIC (%) Fungi” value (Aspergillus niger; Fungi (control line: A. niger)) was “Fungi: A. niger 1%” and the “Anti-bacteria MIC (%) Fungi: A. niger” value (Aspergillus niger; control group, A. niger) was “Fungi: A. niger 1%”. The “Anti-bacteria MIC (%) Bacteria: P. aeruginosa” value (P. aeruginosa) was “Bacteria: P. aeruginosa 2%”, the “Anti-bacteria MIC (%) Bacteria: P. aeruginosa” value (P. aeruginosa; P. aeruginosa) was “Bacteria: P. aeruginosa 2%” and the “Anti-bacteria MIC (%) Bacteria: P. aeruginosa” value (P. aeruginosa; Bacteria: P. aeruginosa) was “Bacteria: P. aeruginosa 2%”. The “Anti-bacteria MIC Bacteria: P. aeruginosa” value (P. aeruginosa; Bacteria: P. aeruginosa) was “Bacteria: P. aeruginosa 2%”.

With “TGFb: positive control for collagen synthesis, 10 ppb” the “Anti-wrinkle Collagen synthesis (% of control)” value ([3]; control group) was 25% and the “Anti-wrinkle Collagen synthesis (% of control)” value ([3]; positive control) was 25%.
